GI50 and TGI data for 9 compounds are collected here from PubChem BioAssay (NCI).

“And” between values parts separate entries of the source, which are not always exact repeats. Equal entries are not always repeated.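 Protocol summary: plate cells (96-well), add compound at 5 concentrations, incubate 48 h, interpolate endpoints linearly. Here, GI50 denotes the concentration required for 50% inhibition of growth. TGI: concentration producing complete growth inhibition.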

Among the test systems are A498 renal; BT-549 breast; HL-60(TB) leukemia; HS 578T breast; HT29 colon; IGROV1 ovarian; MDA-MB-231 breast; MDA-MB-435; SF-268 CNS; SNB-19 CNS.
Assay in all cases: DTP human tumour cell line panel, 48 h

Turning to `Cc1cc(C)c(C[N+](C)(C)C)c(C)c1C`, the GI50 in the test on A498 renal was 0.729 µM; in the test on BT-549 breast, 0.619 µM; in the test on HL-60(TB) leukemia, 0.496 µM; with HS 578T breast, 0.338 µM; with HT29 colon, 0.388 µM; in the test on IGROV1 ovarian, 0.477 µM. Also, the GI50 was 0.471 µM in the test on MDA-MB-231 breast, 0.328 µM in the test with MDA-MB-435, 0.364 µM with SF-268 CNS and 0.351 µM in the test on SNB-19 CNS. Also, the TGI in the test on A498 renal was 8.66 µM; in the test on BT-549 breast, 7.36 µM; in the test on HL-60(TB) leukemia, > 24.7 µM; in the test on HS 578T breast, 9.94 µM; with HT29 colon, 17.4 µM; in the test on IGROV1 ovarian, > 95.7 µM. Further, the TGI with MDA-MB-231 breast is 25.8 µM; with MDA-MB-435 it was 12.5 µM; in the test on SF-268 CNS it was 10 µM; with SNB-19 CNS it was > 64.5 µM.

Consider `OCC1OC(n2ccc3c(NO)ncnc32)C(O)C1O` (stereo unspecified), for which the GI50 in the test on A498 renal is 0.152 µM; in the test with BT-549 breast, 0.193 µM; with HL-60(TB) leukemia it was 0.214 µM; with HS 578T breast, 0.332 µM; in the test with HT29 colon, 0.13 µM; in the test with IGROV1 ovarian, 0.088 µM. The GI50 in the test with MDA-MB-231 breast is 0.233 µM; with MDA-MB-435, 0.198 µM; in the test on SF-268 CNS, 0.233 µM; in the test on SNB-19 CNS, 0.263 µM. Further, the TGI was 0.794 µM with A498 renal; 0.764 µM in the test with BT-549 breast; 0.638 µM in the test on HL-60(TB) leukemia; > 24.1 µM with HS 578T breast; 0.94 µM in the test with HT29 colon; 1.17 µM in the test with IGROV1 ovarian. In addition, the TGI with MDA-MB-435 stood at 0.632 µM; in the test on SF-268 CNS it was 2.81 µM.

For the compound `COc1ccccc1NC(=O)n1nc(N)c2ccccc21`, the GI50 in the test with A498 renal was > 68.7 µM; with BT-549 breast it was 39.3 µM; with HL-60(TB) leukemia, 55 µM; in the test on HS 578T breast, 36.3 µM; with HT29 colon it was > 73.4 µM; with IGROV1 ovarian it was 14.7 µM. Besides, the GI50 with MDA-MB-231 breast was 66 µM; in the test with MDA-MB-435, > 100 µM; in the test on SF-268 CNS, > 48.1 µM; in the test on SNB-19 CNS, > 100 µM. The TGI in the test on A498 renal, in the test with BT-549 breast, in the test on HL-60(TB) leukemia, in the test with HS 578T breast, with HT29 colon and in the test on IGROV1 ovarian was > 100 µM throughout. For the same compound, the TGI with MDA-MB-231 breast, in the test on MDA-MB-435, in the test on SF-268 CNS and in the test with SNB-19 CNS was > 100 µM in each case.

With `COc1cc2c3c(c1)c1cc(OC)c(OC)cc1c[n+]3CC2`, the GI50 is > 100 µM with A498 renal; 7.23 µM with BT-549 breast; > 100 µM in the test on HL-60(TB) leukemia; 37.2 µM in the test on HT29 colon; > 100 µM with MDA-MB-231 breast; 44.2 µM in the test with MDA-MB-435. The GI50 is 0.351 µM in the test with SF-268 CNS and 1.94 µM in the test on SNB-19 CNS. The TGI is > 100 µM with A498 renal; 22.7 µM and 55.2 µM with BT-549 breast; > 100 µM in the test with HL-60(TB) leukemia; 20.6 µM in the test on HS 578T breast; 50 µM and > 100 µM in the test with HT29 colon; 50 µM and > 100 µM in the test with IGROV1 ovarian. Besides, the TGI in the test with MDA-MB-231 breast was > 100 µM; in the test on MDA-MB-435, 50 µM and > 100 µM; with SF-268 CNS, 3.3 µM and 3.8 µM; with SNB-19 CNS it was 50 µM and > 100 µM.

For `OCCSCc1ccccc1`, the TGI in the test with A498 renal, in the test with BT-549 breast, in the test on HL-60(TB) leukemia, in the test on HS 578T breast, in the test on HT29 colon and in the test on IGROV1 ovarian was > 100 µM throughout. Besides, the TGI in the test with MDA-MB-231 breast, in the test on MDA-MB-435, in the test with SF-268 CNS and in the test with SNB-19 CNS was > 100 µM each time.

Turning to `COC1CC2C=C(C)/C=C/C=C/C(=O)NC(c3ccccc3)C/C=C/CCC(O)CC(=O)C2=C1O` (stereo unspecified), the GI50 in the test on A498 renal was 0.166 µM; in the test on BT-549 breast, 0.261 µM; in the test on HL-60(TB) leukemia it was 0.153 µM; in the test on HS 578T breast, 0.393 µM; in the test on HT29 colon, 0.238 µM; in the test on IGROV1 ovarian it was 0.444 µM. Besides, the GI50 is 0.27 µM in the test with MDA-MB-231 breast, 0.313 µM in the test on MDA-MB-435, 0.365 µM in the test on SF-268 CNS and 0.279 µM in the test on SNB-19 CNS. The TGI was determined as 0.654 µM in the test on A498 renal; 1.17 µM with BT-549 breast; 0.406 µM with HL-60(TB) leukemia; 1.91 µM in the test on HS 578T breast; 0.854 µM in the test with HT29 colon; 1.84 µM in the test on IGROV1 ovarian. In addition, the TGI was 0.961 µM with MDA-MB-231 breast, 1.29 µM with MDA-MB-435, 1.51 µM in the test with SF-268 CNS and 1.42 µM in the test on SNB-19 CNS.

`O=C1C=C(Br)C(=O)C12CCc1ccccc12` (stereo unspecified): the TGI with A498 renal was 24.1 µM; with BT-549 breast it was 34.2 µM; in the test with HL-60(TB) leukemia it was 25.2 µM; in the test with HS 578T breast it was > 82.5 µM; in the test on HT29 colon it was 45 µM; with IGROV1 ovarian, 39.3 µM. The TGI worked out at 70.2 µM in the test with MDA-MB-231 breast, 31.8 µM with MDA-MB-435, 58.7 µM in the test with SF-268 CNS and 66.6 µM with SNB-19 CNS.

Consider `NNc1nc2ccccc2c(=O)n1NC(=O)C(=O)Nc1cccc(C(F)(F)F)c1`, for which the TGI in the test on A498 renal, in the test with BT-549 breast, in the test with HL-60(TB) leukemia, with HS 578T breast, in the test on HT29 colon and in the test with IGROV1 ovarian was > 100 µM each time. Further, the TGI in the test on MDA-MB-231 breast, in the test with MDA-MB-435, in the test on SF-268 CNS and with SNB-19 CNS was > 100 µM throughout.

`O=c1nc(Nc2cccc(Cl)c2)oc2cc(Cl)oc(=O)c12`: the GI50 with A498 renal is 10.9 µM; in the test with BT-549 breast, 22.5 µM; in the test on HL-60(TB) leukemia, 10.8 µM; in the test with HS 578T breast, 2.81 µM; in the test on HT29 colon, 9.39 µM; in the test on IGROV1 ovarian, 5.13 µM. The GI50 is 5.78 µM in the test on MDA-MB-231 breast, 5.34 µM in the test on MDA-MB-435, 3.69 µM in the test on SF-268 CNS and 20 µM with SNB-19 CNS. Besides, the TGI in the test on A498 renal came to 27.3 µM; with BT-549 breast it was 95.7 µM; in the test on HL-60(TB) leukemia, 55.2 µM; in the test with HS 578T breast it was 17.4 µM; in the test with HT29 colon, 29.3 µM; in the test on IGROV1 ovarian it was 21.1 µM. For the same compound, the TGI in the test with MDA-MB-231 breast is 30.9 µM; with MDA-MB-435 it was 20.8 µM; in the test on SF-268 CNS, 14.2 µM; in the test with SNB-19 CNS, > 100 µM.

As usually defined, the GI50 is the concentration that inhibits growth by half. As a reminder, the TGI is the concentration at which net growth stops. Higher therefore signals lower sensitivity of the cells.
